Measured values as given in US20260001928A1 (CORTERIA PHARMACEUTICALS, priority 2022, published 2026).
*1 amine or outer side, *2 acyl side, *3 side chain or, on linkers, in order; H or OH if unused. Where a SMILES comes first, the peptide text is derived from it. Side-chain parts run from the residue outwards. [ ]: non-standard residue; d: D form. The star is where a group is joined. C18 diacid = O=C(O)CCCCCCCCCCCCCCCCC(=O)*; C16 diacid = O=C(O)CCCCCCCCCCCCCCC(=O)*; γGlu = O=C(O)[C@H](CCC(=O)[*:2])N[*:1]; C12 diacid = O=C(O)CCCCCCCCCCC(=O)*; NMeI = CC[C@H](C)[C@H](NC)C(=O)O; αMeL = CC(C)C[C@](C)(N)C(=O)O; Api = NC1(C(=O)O)CCNCC1; AEEA = NCCOCCOCC(=O)O; Aib = CC(C)(N)C(=O)O

Key:
[1] = target: T1, human CRF2a receptor (Homo sapiens, UniProt Q13324); assay: Activity at human CRF2a receptor, cAMP functional assay in TeloHEAC cells; assay type: cell-based; settings: TeloHEAC cells stably expressing human CRF2a receptor, relative to urocortin 2 (100 nM = 100%)
T1 construct: expressed in transfected cells; host or cells: TeloHEAC cells
T1 sequence (Q13324 1-411): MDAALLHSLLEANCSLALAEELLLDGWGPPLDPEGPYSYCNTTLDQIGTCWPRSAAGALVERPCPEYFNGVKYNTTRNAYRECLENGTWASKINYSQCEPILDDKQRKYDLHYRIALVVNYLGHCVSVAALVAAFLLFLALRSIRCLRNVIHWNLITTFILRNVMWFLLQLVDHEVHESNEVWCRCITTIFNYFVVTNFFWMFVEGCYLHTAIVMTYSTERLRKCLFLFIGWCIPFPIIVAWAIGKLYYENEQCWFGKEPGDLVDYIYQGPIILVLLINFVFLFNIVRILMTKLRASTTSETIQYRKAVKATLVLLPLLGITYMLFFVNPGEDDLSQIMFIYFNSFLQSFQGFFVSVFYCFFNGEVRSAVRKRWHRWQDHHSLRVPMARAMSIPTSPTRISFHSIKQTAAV
How it was run: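 TeloHEAC cells stably expressing human CRF2a (10000 cells/well) were treated with 16-point 1:2 compound dilutions in HBSS/20 mM HEPES with IBMX for 30 min at 37° C. cAMP was read by HTRF (665/620 nm ratio). EC50 was the concentration giving 50% activation, with 100 nM urocortin 2 set as 100%.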

[2] = target: T2, CFR1R receptor (Homo sapiens, UniProt P34998); assay: Activity at anti-target CFR1R receptor, cAMP assay in CRF1R-overexpression CHO-K1 cells; assay type: cell-based; settings: 100% = Sauvagine at 100 nM; for EC50: cAMP
T2 construct: host or cells: CHO-K1 (clone 2)
T2 sequence (P34998 24-415): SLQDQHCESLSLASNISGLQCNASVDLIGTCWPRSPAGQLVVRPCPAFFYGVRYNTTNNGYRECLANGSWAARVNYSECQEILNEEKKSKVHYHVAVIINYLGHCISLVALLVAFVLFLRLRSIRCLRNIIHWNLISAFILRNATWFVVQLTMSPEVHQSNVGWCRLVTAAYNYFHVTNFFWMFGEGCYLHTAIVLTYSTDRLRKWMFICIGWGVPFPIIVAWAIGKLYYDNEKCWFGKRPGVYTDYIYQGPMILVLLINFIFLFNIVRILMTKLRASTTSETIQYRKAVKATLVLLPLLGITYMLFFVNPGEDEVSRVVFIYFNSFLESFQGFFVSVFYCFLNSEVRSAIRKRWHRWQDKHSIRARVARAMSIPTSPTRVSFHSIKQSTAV
How it was run: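 Run as for the TeloHAEC line, except the full-activation control well received Sauvagine (100 nM) and final density was 4000 cells/well. Cells from clone 2 came from frozen aliquots of near-confluent cultures.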

Row | Compound | EC50 [1] [nM] | Emax (% I) [2] [% I] | EC50 [2] [nM]
1 | CC[C@H](C)[C@H](NC(C)=O)C(=O)N[C@H](C(=O)N[C@@H](CC(C)C)C(=O)N[C@@H](CO)C(=O)N[C@@H](CC(C)C)C(=O)N[C@@H](CC(=O)O)C(=O)N[C@@H](C(=O)N1CCC[C@H]1C(=O)N[C@H](C(=O)N[C@@H](CCCCN)C(=O)N[C@@H](CC(C)C)C(=O)N[C@@H](CCCCNC(=O)CC[C@H](NC(=O)CCCCCCCCCCC(=O)O)C(=O)O)C(=O)N[C@@H](CCCCN)C(=O)N[C@H](C(=O)N[C@@H](CC(C)C)C(=O)N[C@@H](CC(C)C)C(=O)N[C@@H](CCC(=O)O)C(=O)N[C@@H](CCC(N)=O)C(=O)N[C@@H](CCC(=O)O)C(=O)N[C@@H](CCCCN)C(=O)N[C@@H](CCC(N)=O)C(=O)N[C@@H](CCCCN)C(=O)N[C@@H](CCCCN)C(=O)N[C@@H](CCC(N)=O)C(=O)N[C@@H](CCCNC(=N)N)C(=O)N[C@@H](CCC(=O)O)C(=O)N[C@@H](CCC(N)=O)C(=O)N[C@@H](C)C(=O)N[C@@H](CCC(=O)O)C(=O)N[C@H](C(=O)N[C@@H](CC(N)=O)C(=O)NC1(C(=O)N[C@@H](CCC(N)=O)C(=O)N[C@H](C(=O)N[C@@H](CC(C)C)C(=O)N[C@@H](C)C(=O)N[C@@H](CCC(N)=O)C(=O)N[C@H](C(N)=O)C(C)C)[C@@H](C)CC)CCNCC1)[C@@H](C)O)[C@@H](C)CC)[C@@H](C)CC)C(C)C)C(C)C [compound 183] (Ac-IVLSLD[dV]PIKLK([γGlu-C12 diacid])KILLEQEKQKKQREQAETN[Api]QILAQV-NH2) | 2.47 | 11 | > 250
2 | CC[C@H](C)[C@H](NC(C)=O)C(=O)N[C@H](C(=O)N[C@@H](CC(C)C)C(=O)N[C@@H](CO)C(=O)N[C@@H](CC(C)C)C(=O)N[C@@H](CC(=O)O)C(=O)N[C@@H](C(=O)N1CCC[C@H]1C(=O)N[C@H](C(=O)N[C@@H](CCCCN)C(=O)N[C@@](C)(CC(C)C)C(=O)N[C@@H](CCCCNC(=O)COCCOCCNC(=O)COCCOCCNC(=O)CC[C@H](NC(=O)CCCCCCCCCCCCCCCCC(=O)O)C(=O)O)C(=O)N[C@@H](CCCCN)C(=O)N[C@H](C(=O)N[C@@H](CC(C)C)C(=O)N[C@@H](CC(C)C)C(=O)N[C@@H](CCC(=O)O)C(=O)N[C@@H](CCC(N)=O)C(=O)N[C@@H](CCC(=O)O)C(=O)N[C@@H](CCCCN)C(=O)N[C@@H](CCC(N)=O)C(=O)N[C@@H](CCCCN)C(=O)N[C@@H](CCCCN)C(=O)N[C@@H](CCC(N)=O)C(=O)N[C@@H](CCCNC(=N)N)C(=O)N[C@@H](CCC(=O)O)C(=O)N[C@@H](CCC(N)=O)C(=O)N[C@@H](C)C(=O)N[C@@H](CCC(=O)O)C(=O)N[C@H](C(=O)N[C@@H](CC(N)=O)C(=O)N[C@@H](C)C(=O)N[C@@H](CCC(N)=O)C(=O)N[C@H](C(=O)N[C@@H](CC(C)C)C(=O)N[C@@H](C)C(=O)N[C@@H](CCC(N)=O)C(=O)N[C@H](C(N)=O)C(C)C)[C@@H](C)CC)[C@@H](C)O)[C@@H](C)CC)[C@@H](C)CC)C(C)C)C(C)C [compound 112] (Ac-IVLSLD[dV]PIK[αMeL]K([AEEA-AEEA-γGlu-C18 diacid])KILLEQEKQKKQREQAETNAQILAQV-NH2) | 0.28 | 3 | > 250
3 | CC[C@H](C)[C@H](NC(C)=O)C(=O)N[C@H](C(=O)N[C@@H](CC(C)C)C(=O)N[C@@H](CO)C(=O)N[C@@H](CC(C)C)C(=O)N[C@@H](CC(=O)O)C(=O)N[C@@H](C(=O)N1CCC[C@H]1C(=O)N[C@H](C(=O)N[C@@H](CCCCN)C(=O)N[C@@](C)(CC(C)C)C(=O)N[C@@H](CCCCNC(=O)CC[C@H](NC(=O)CCCCCCCCCCCCCCC(=O)O)C(=O)O)C(=O)N[C@@H](CCCCN)C(=O)N[C@H](C(=O)N[C@@H](CC(C)C)C(=O)N[C@@H](CC(C)C)C(=O)N[C@@H](CCC(=O)O)C(=O)N[C@@H](CCC(N)=O)C(=O)N[C@@H](CCC(=O)O)C(=O)N[C@@H](CCCCN)C(=O)N[C@@H](CCC(N)=O)C(=O)N[C@@H](CCCCN)C(=O)N[C@@H](CCCCN)C(=O)N[C@@H](CCC(N)=O)C(=O)N[C@@H](CCCNC(=N)N)C(=O)N[C@@H](CCC(=O)O)C(=O)N[C@@H](CCC(N)=O)C(=O)N[C@@H](C)C(=O)N[C@@H](CCC(=O)O)C(=O)N[C@H](C(=O)N[C@@H](CC(N)=O)C(=O)N[C@H](C(=O)N[C@@H](CCC(N)=O)C(=O)N[C@H](C(=O)N[C@@H](CC(C)C)C(=O)N[C@@H](C)C(=O)N[C@@H](CCC(N)=O)C(=O)N[C@H](C(N)=O)C(C)C)[C@@H](C)CC)C(C)C)[C@@H](C)O)[C@@H](C)CC)[C@@H](C)CC)C(C)C)C(C)C [compound 50] (Ac-IVLSLD[dV]PIK[αMeL]K([γGlu-C16 diacid])KILLEQEKQKKQREQAETNVQILAQV-NH2) | 0.26 | 9 | > 250
4 | CC[C@H](C)[C@H](NC(=O)[C@H](CCC(N)=O)NC(=O)C(C)(C)NC(=O)[C@H](CC(N)=O)NC(=O)[C@@H](NC(=O)[C@H](CCC(=O)O)NC(=O)[C@H](C)NC(=O)[C@H](CCC(N)=O)NC(=O)[C@H](CCC(=O)O)NC(=O)[C@H](CCCNC(=N)N)NC(=O)[C@H](CCC(N)=O)NC(=O)[C@H](CCCCN)NC(=O)[C@H](CCCCN)NC(=O)[C@H](CCC(N)=O)NC(=O)[C@H](CCCCN)NC(=O)[C@H](CCC(=O)O)NC(=O)[C@H](CCC(N)=O)NC(=O)[C@H](CCC(=O)O)NC(=O)[C@H](CC(C)C)NC(=O)[C@H](CC(C)C)NC(=O)[C@@H](NC(=O)[C@H](CCCCN)NC(=O)[C@H](CCCCNC(=O)CC[C@H](NC(=O)CCCCCCCCCCCCCCC(=O)O)C(=O)O)NC(=O)[C@](C)(CC(C)C)NC(=O)[C@H](CCCCN)NC(=O)[C@@H](NC(=O)[C@@H]1CCCN1C(=O)[C@H](NC(=O)[C@H](CC(=O)O)NC(=O)[C@H](CC(C)C)NC(=O)[C@H](CO)NC(=O)[C@H](CC(C)C)NC(=O)[C@@H](NC(C)=O)C(C)C)C(C)C)[C@@H](C)CC)[C@@H](C)CC)[C@@H](C)O)C(=O)N[C@@H](CC(C)C)C(=O)N[C@@H](C)C(=O)N[C@@H](CCC(N)=O)C(=O)N[C@H](C(N)=O)C(C)C [compound 46] (Ac-VLSLD[dV]PIK[αMeL]K([γGlu-C16 diacid])KILLEQEKQKKQREQAETN[Aib]QILAQV-NH2) | 0.7 | 6 | > 250
5 | CC[C@H](C)[C@H](NC)C(=O)N[C@H](C(=O)N[C@@H](CC(C)C)C(=O)N[C@@H](CO)C(=O)N[C@@H](CC(C)C)C(=O)N[C@@H](CC(=O)O)C(=O)N[C@@H](C(=O)N1CCC[C@H]1C(=O)N[C@H](C(=O)N[C@@H](CCCCN)C(=O)N[C@@H](CC(C)C)C(=O)N[C@@H](CCCCNC(=O)CC[C@H](NC(=O)CCCCCCCCCCCCCCC(=O)O)C(=O)O)C(=O)N[C@@H](CCCCN)C(=O)N[C@H](C(=O)N[C@@H](CC(C)C)C(=O)N[C@@H](CC(C)C)C(=O)N[C@@H](CCC(=O)O)C(=O)N[C@@H](CCC(N)=O)C(=O)N[C@@H](CCC(=O)O)C(=O)N[C@@H](CCCCN)C(=O)N[C@@H](CCC(N)=O)C(=O)N[C@@H](CCCCN)C(=O)NC(C)(C)C(=O)N[C@@H](CCC(N)=O)C(=O)N[C@@H](CCCNC(=N)N)C(=O)N[C@@H](CCC(=O)O)C(=O)N[C@@H](CCC(N)=O)C(=O)N[C@@H](C)C(=O)N[C@@H](CCC(=O)O)C(=O)N[C@H](C(=O)N[C@@H](CC(N)=O)C(=O)NC1(C(=O)N[C@@H](CCC(N)=O)C(=O)N[C@H](C(=O)N[C@@H](CC(C)C)C(=O)N[C@@H](C)C(=O)N[C@@H](CCC(N)=O)C(=O)N[C@H](C(N)=O)C(C)C)[C@@H](C)CC)CCNCC1)[C@@H](C)O)[C@@H](C)CC)[C@@H](C)CC)C(C)C)C(C)C [compound 155] (H-[NMeI]VLSLD[dV]PIKLK([γGlu-C16 diacid])KILLEQEKQK[Aib]QREQAETN[Api]QILAQV-NH2) | 0.51 | 26 | > 250
